Assays:
Mahlavu cells [1] = test: Colony forming assay, Mahlavu cells; assay type: cell-based, Human; conditions: various dosage of trilostane, 10 to 13 days, FIG. 2A
Method: (§1) Human HCC cancer cell lines (including Mahlavu, Hep3B, and Huh7) were cultured in Dulbecco's modified Eagle medium (DMEM), supplemented with 10% (v/v) fetal bovine serum and antibiotics (100 units/mL penicillin, 100 μg/mL streptomycin, and 2.5 μg/mL amphotericin B). All cell lines have been periodically authenticated by short tandem repeat analysis at Bioresource Collection and Research Center, Hsinchu, Taiwan (R.O.C.) and tested for being mycoplasma free. Trilostane was purchased from LKT Laboratories, St. Paul, Minn. A total of 500 Mahlavu or Hep3B HCC cancer cells were seeded into 6-well plate and treated with various dosage of trilostane. The medium was replaced every 3 days. After 10 to 13 days, colonies were stained with 3% crystal violet and examined by microscopy. Colonies containing at least 50 individual cells were counted.

Hep3B cells [2] = test: Colony forming assay, Hep3B cells; assay type: cell-based, Human; conditions: various dosage of trilostane, 10 to 13 days, FIG. 2B
Method: as §1

Mahlavu cells [3] = test: Wound healing assay, Mahlavu cells; assay type: cell-based, Human; conditions: 24 hours, FIG. 2C
Method: (§2) Human HCC cancer cell lines (including Mahlavu, Hep3B, and Huh7) were cultured in Dulbecco's modified Eagle medium (DMEM), supplemented with 10% (v/v) fetal bovine serum and antibiotics (100 units/mL penicillin, 100 μg/mL streptomycin, and 2.5 μg/mL amphotericin B). All cell lines have been periodically authenticated by short tandem repeat analysis at Bioresource Collection and Research Center, Hsinchu, Taiwan (R.O.C.) and tested for being mycoplasma free. Trilostane was purchased from LKT Laboratories, St. Paul, Minn. Mahlavu and Hep3B cells (2×10^5 cells/well) were seeded into 6-well plates and grown to confluence overnight. A wound was made by scraping with a sterilized 200-μL pipette tip in the middle of the cell monolayer, and the cells were allowed to migrate to the denuded area for 24 hours. The percentage of wound closure was measured using Olympus IX71 light microscope (Olympus, Tokyo, Japan).

Hep3B cells [4] = test: Wound healing assay, Hep3B cells; assay type: cell-based, Human; conditions: 24 hours, FIG. 2D
Method: as §2

mahlave cells = test: Transwell migration assay; assay type: cell-based, Human; conditions: FIG. 2E
[5] = system: phosphorylated MEKK1 (p-MEKK1); test: Western blot analysis of p-MEKK1 in Mahlavu cells; assay type: cell-based, Human; conditions: Mahlavu cells after trilostane treatment, FIG. 3
Method: (§3) Total cellular proteins were extracted, quantified, and subject to gel electrophoresis. Whole-cell lysates were isolated from Mahlavu cells. Equal amounts of proteins (40 μg/lane) were electrophoresed in 10% sodium dodecyl sulfatepolyacrylamide gel. The transferred membrane was blocked with 5% defatted milk and immunoblotted with primary antibodies against various proteins, including ERK (total form), p-ERK, p-AKT, E-cadherin, N-cadherin, Snail1, Twist, Vimentin, MLC II (total form), p-MLC II, ROCK, and GAPDH at room temperature for 3 hours. The antigen-antibody complexes were visualized with by chemiluminescence with the Amersham ECL detection system (GE Healthcare, Piscataway, N.J.).

[6] = system: phosphorylated ERK (p-ERK); test: Western blot analysis of p-ERK in Mahlavu cells; assay type: cell-based, Human; conditions: Mahlavu cells after trilostane treatment, FIG. 3
Method: as §3

Mahlavu cells [7] = test: In vivo xenograft model of HCC; conditions: Mahlavu xenograft in BALB/c nude mice, 30 or 60 mg/kg intraperitoneally every day for 18 days; FIG. 4
Method: All animal experiments were approved by the Institutional Animal Care and Use Committee of MacKay Memorial Hospital (Taiwan, R.O.C.). 6-week-old male BALB/c nude mice were injected subcutaneously with 1.0×10^7 Mahlavu cells into the bilateral back pad. When the tumor growth reached 50 mm^3, mice were randomly divided into three groups (n=5 mice each group): (1) low-dose group, in which 30 mg/kg of trilostane was intraperitoneally administered to the mouse every day for 18 days; (2) high-dose group, in which 60 mg/kg of trilostane was intraperitoneally administered to the mouse every day for 18 days; and (3) control group, in which vehicle control (Dimethyl sulfoxide, DMSO) of the same volume was intraperitoneally administered to the mouse every day for 18 days. The tumor volume was measured twice a week by the same investigator, and mice were sacrificed when tumors reached 10% of body weight.

Structure (SMILES): C[C@]12CC[C@H]3[C@@H](CC[C@@]45O[C@@H]4C(O)=C(C#N)C[C@]35C)[C@@H]1CC[C@@H]2O [trilostane]
- colony numbers (Mahlavu cells [1]): decreased colony numbers
- colony numbers (Hep3B cells [2]): decreased colony numbers
- wound closure (Mahlavu cells [3]): significantly inhibited the wound closure
- wound closure (Hep3B cells [4]): significantly inhibited the wound closure
- cell migration (mahlave cells): inhibitory effect
- expression of phosphorylated MEKK1 (p-MEKK1) [5]: down-regulated
- expression of phosphorylated ERK (p-ERK) [6]: down-regulated
- tumor growth rate (Mahlavu cells [7]): significantly suppressed
